The assay concerns siRNA. The assay can be described thus: Fluorescence spectroscopy of peptide-siRNA interaction. In kind it is binding. On the procedure: The peptide C6M1 was used in this experiment to study the interaction between peptide and siRNA using fluorescence spectroscopy method. C6M1 has four tryptophan amino acids which can be used as fluorescence probe. […] A blue shift from 355 to 330 nm was also observed in molar ratios of less than 40:1, clearly at 20:1 and 10:1, probably due to the change in the environment of tryptophan by adding more hydrophilic siRNA molecules.
A similar experiment was also performed by tracking the fluorescence property of labeled siRNA, interacting with C6M1. […] The red shift could also be an indicator of a change in the siRNA environment and/or conformational change in siRNA structure upon interacting with peptides.

For the sequence RLWRLLWRLWRRLWRLLR (C6M1), where the note is “fixed C6M1 concentration, more siRNA added”, the “tryptophan fluorescence intensity of C6M1 on adding siRNA” value is recorded as “intensity of fluorescence decreased”. Besides, the “fluorescence spectra of labeled siRNA” value (low molar ratios of 2:1 and 4:1) is given as “no significant change”. Moreover, the “fluorescence intensity of labeled siRNA” value (molar ratios of 10:1 and 20:1) was “intensity decreased”. For the same sequence, the “blue shift of fluorescence” value (molar ratios of less than 40:1, clearly at 20:1 and 10:1) was in the range of 355 to 330 nm.

The values are drawn from patent US9950073B2, “Peptide sequence design and use thereof for peptide-mediated siRNA delivery” (Positec Power Tools (Suzhou) Co Ltd, priority 2011, dated 2018).
